Results as given in patent US6022893A, “Hydroxamic acid derivatives” (ONO Pharmaceutical Co., Ltd., priority 1995, dated 2000).

Experiments:
gelatinase A [1] = biological target: T1, gelatinase A (Homo sapiens, UniProt P08253); test: Inhibitory activity against gelatinase A (FITC-labeled gelatin substrate); type: biochemical; conditions: incubated 2 hours at 37° C., APMA-activated progelatinase A from human normal skin dermal fibroblasts
T1 construct: endogenous in cells; host or cells: human normal skin dermal fibroblasts (HNDF); progelatinase A purified from them
T1 sequence (P08253 110-660): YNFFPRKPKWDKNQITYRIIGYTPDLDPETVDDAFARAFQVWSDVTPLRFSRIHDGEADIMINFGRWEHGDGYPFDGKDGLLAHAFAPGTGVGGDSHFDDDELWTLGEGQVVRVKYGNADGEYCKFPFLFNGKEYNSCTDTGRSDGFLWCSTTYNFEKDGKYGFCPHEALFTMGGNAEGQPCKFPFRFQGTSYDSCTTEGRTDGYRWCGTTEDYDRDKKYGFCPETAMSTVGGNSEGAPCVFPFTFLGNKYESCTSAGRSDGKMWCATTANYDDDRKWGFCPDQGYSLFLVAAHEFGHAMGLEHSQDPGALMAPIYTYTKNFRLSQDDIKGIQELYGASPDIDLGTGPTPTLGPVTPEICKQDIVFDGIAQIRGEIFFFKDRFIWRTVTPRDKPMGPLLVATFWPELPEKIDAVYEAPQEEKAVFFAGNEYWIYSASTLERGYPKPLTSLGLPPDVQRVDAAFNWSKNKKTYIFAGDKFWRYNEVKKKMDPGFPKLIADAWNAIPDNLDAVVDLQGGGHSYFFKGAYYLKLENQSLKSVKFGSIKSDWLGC
Procedure: (§1) The potency of inhibitory activity against each matrix metalloproteinase is confirmed as below. The IC50 value for inhibition of gelatinase A activity is determined as follows.
(§2) (1) Inhibitory activity against gelatinase A
(§3) Progelatinase A (7 μl; in assay buffer (90 μl )) was purified from human normal skin dermal fibroblasts (HNDF). It was activated by the addition of 10 mM of p-aminophenylmercuric acetate (APMA) (10 μl) for 1 hour at 37° C.
The solution of activated gelatinase A (7 μl tube, 98μl) was mixed with various concentrations of the test compound or dimethylsulfoxide (2 μl) and gelatin (100 μl) labeled with 0.05% fluorescein isothiocyanate (FITC) and incubated for 2 hours at 37° C. The reaction was terminated by the addition of 0.1 M Tris-HCI (pH9.5) containing 94.7% ethanol (750 μl). The mixture was stirred and then allowed to stand for 30 minutes at 0° C. The mixture was centrifuged for 30 minutes at 900×g. The IC50 was determined by measuring the fluorescent intensity in the supernatant (Ex=495 nm, and Em=520 nm). The results are shown in Table 24 (Example number 2 and 2(3)).

gelatinase A [2] = biological target: T1, gelatinase A; test: Inhibitory activity against gelatinase A (synthetic substrate MOCAc-Pro-Leu-Gly-Leu-A2 pr(Dnp)-Ala-Arg-NH2); type: biochemical; conditions: final 13.5 μM, incubated 20 minutes at 37° C., activated gelatinase A
Procedure: as §1, §2, §3
Alternatively the inhibitory activity of the test compound was measured by using the synthetic substrate (MOCAc-Pro-Leu-Gly-Leu-A2 pr(Dnp)-Ala-Arg-NH2). The substrate solution (890 μl; the final concentration was 13.5 μM) was mixed with various concentrations of the test compound or dimethylsulfoxide ([…]) for 5 minutes at 37° C. The activated gelatinase A (7 μl/tube, 100 μl) was added to the reaction mixture and further incubated for 20 minutes at 37° C. 0.1 M sodium acetate buffer (2 ml; pH4.0) was added into the mixture. The IC50 was determined by measuring the fluorescent intensity (Ex=328 nm, and Em=393 nm) in this solution. The results are shown in Table 24 (Example number 2(4) and 3(2)).

**Q.** With CCCCCc1ccc(C(=O)Nc2ccc(S(=O)(=O)N[C@H](Cc3ccccc3)C(=O)NO)cc2)cc1 [Example 2(3), N-Hydroxy-N-[N'-[[4-(4-pentylbenzoylamino)phenyl]sulfonyl]-D-phenylalanyl]amide] as the compound, how does the IC50 (gelatinase A [1]) read?
**A.** The IC50 was 1 nM.

**Q.** Cc1ccc(C(=O)Nc2ccc(S(=O)(=O)N[C@H](Cc3c[nH]c4ccccc34)C(=O)NO)cc2)cc1 [Example 2(4), N-Hydroxy-N-[N'-[[4-(p-toluoylamino)phenyl]sulfonyl]-D-tryptophyl]amide] was tested. Which IC50 (gelatinase A [2]) did it give?
**A.** Its IC50 is 0.61 nM.

**Q.** For Cc1ccc(C(=O)Nc2ccc(S(=O)(=O)NCC(=O)NO)cc2)cc1 [Example 2, N N-Hydroxy-N-[N'-[[4-(p-toluoylamino)phenyl]sulfonyl]glycyl]amide], which IC50 (gelatinase A [1]) is on record?
**A.** The IC50 was 1.7 nM.

**Q.** How did the IC50 (gelatinase A [2]) turn out when C[C@@H](NS(=O)(=O)c1ccc(NC(=O)c2cccs2)cc1)C(=O)NO [Example 3(2)] was run?
**A.** The IC50 was 0.23 nM.
